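Compound exposure: 48 hours, 5 concentrations, 96-well plates. TGI is the concentration that stops growth completely.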
Key:
Test in all cases: NCI tumour cell line growth inhibition, 48 h
786-0 renal = system: 786-0 renal
A498 renal = system: A498 renal
A549 NSCLC = system: A549 NSCLC
ACHN renal = system: ACHN renal
BT-549 breast = system: BT-549 breast
CAKI-1 renal = system: CAKI-1 renal
CCRF-CEM leukemia = system: CCRF-CEM leukemia
COLO 205 colon = system: COLO 205 colon
DU-145 prostate = system: DU-145 prostate
EKVX NSCLC = system: EKVX NSCLC
HCC-2998 colon = system: HCC-2998 colon
HCT-116 colon = system: HCT-116 colon
HCT-15 colon = system: HCT-15 colon
HL-60(TB) leukemia = system: HL-60(TB) leukemia
HOP-62 NSCLC = system: HOP-62 NSCLC
HOP-92 NSCLC = system: HOP-92 NSCLC
HS 578T breast = system: HS 578T breast
HT29 colon = system: HT29 colon
IGROV1 ovarian = system: IGROV1 ovarian
K-562 leukemia = system: K-562 leukemia
KM12 colon = system: KM12 colon
LOX IMVI melanoma = system: LOX IMVI melanoma
M14 melanoma = system: M14 melanoma
MALME-3M melanoma = system: MALME-3M melanoma
MCF7 breast = system: MCF7 breast
MDA-MB-231 breast = system: MDA-MB-231 breast
MDA-MB-435 = system: MDA-MB-435
MDA-N = system: MDA-N
MOLT-4 leukemia = system: MOLT-4 leukemia
NCI-H226 lung = system: NCI-H226 lung
NCI-H23 lung = system: NCI-H23 lung
NCI-H460 lung = system: NCI-H460 lung
NCI-H522 lung = system: NCI-H522 lung
NCI/ADR-RES ovarian = system: NCI/ADR-RES ovarian
OVCAR-4 ovarian = system: OVCAR-4 ovarian
OVCAR-5 ovarian = system: OVCAR-5 ovarian
OVCAR-8 ovarian = system: OVCAR-8 ovarian
PC-3 prostate = system: PC-3 prostate
RPMI-8226 leukemia = system: RPMI-8226 leukemia
RXF 393 renal = system: RXF 393 renal
SF-268 CNS = system: SF-268 CNS
SF-295 CNS = system: SF-295 CNS
SK-MEL-2 melanoma = system: SK-MEL-2 melanoma
SK-MEL-28 melanoma = system: SK-MEL-28 melanoma
SK-MEL-5 melanoma = system: SK-MEL-5 melanoma
SK-OV-3 ovarian = system: SK-OV-3 ovarian
SN12C renal = system: SN12C renal
SNB-19 CNS = system: SNB-19 CNS
SR leukemia = system: SR leukemia
SW-620 colon = system: SW-620 colon
T-47D breast = system: T-47D breast
TK-10 renal = system: TK-10 renal
U251 CNS = system: U251 CNS
UACC-257 melanoma = system: UACC-257 melanoma
UACC-62 melanoma = system: UACC-62 melanoma
UO-31 renal = system: UO-31 renal
OVCAR-3 ovarian = system: OVCAR-3 ovarian
SF-539 CNS = system: SF-539 CNS
SNB-75 CNS = system: SNB-75 CNS

Measured: TGI

O=C1c2ccccc2C(=O)N1CCSCC(CO)SCCN1C(=O)c2ccccc2C1=O (centres undefined)
> 100 µM: 786-0 renal | A498 renal | A549 NSCLC | ACHN renal | BT-549 breast | CAKI-1 renal | CCRF-CEM leukemia | COLO 205 colon | DU-145 prostate | EKVX NSCLC | HCC-2998 colon | HCT-116 colon | HCT-15 colon | HOP-62 NSCLC | HOP-92 NSCLC | HS 578T breast | HT29 colon | IGROV1 ovarian | K-562 leukemia | KM12 colon | LOX IMVI melanoma | M14 melanoma | MALME-3M melanoma | MCF7 breast | MDA-MB-231 breast | MDA-MB-435 | MDA-N | MOLT-4 leukemia | NCI-H226 lung | NCI-H23 lung | NCI-H460 lung | NCI-H522 lung | NCI/ADR-RES ovarian | OVCAR-4 ovarian | OVCAR-5 ovarian | OVCAR-8 ovarian | PC-3 prostate | RPMI-8226 leukemia | RXF 393 renal | SF-268 CNS | SF-295 CNS | SK-MEL-2 melanoma | SK-MEL-28 melanoma | SK-MEL-5 melanoma | SK-OV-3 ovarian | SN12C renal | SNB-19 CNS | SR leukemia | SW-620 colon | T-47D breast | TK-10 renal | U251 CNS | UACC-257 melanoma | UACC-62 melanoma | UO-31 renal
50.5 µM: HL-60(TB) leukemia

Oc1ccc([C@H]2c3c(O)cc(O)cc3C3c4c(cc(O)cc4[C@@H]2[C@H]2c4cc(O)cc5c4C(c4cc(O)cc(O)c4[C@@H]2c2ccc(O)cc2)[C@@H](c2ccc(O)cc2)O5)O[C@@H]3c2ccc(O)cc2)cc1 (some centres undefined)
0.428 µM: RXF 393 renal
8.15 µM: COLO 205 colon
5.33 µM: SF-539 CNS
> 100 µM: 786-0 renal | A549 NSCLC | ACHN renal | BT-549 breast | CAKI-1 renal | CCRF-CEM leukemia | DU-145 prostate | EKVX NSCLC | HCT-116 colon | HCT-15 colon | HL-60(TB) leukemia | HOP-62 NSCLC | HS 578T breast | HT29 colon | IGROV1 ovarian | K-562 leukemia | KM12 colon | LOX IMVI melanoma | M14 melanoma | MALME-3M melanoma | MCF7 breast | MDA-MB-231 breast | MDA-MB-435 | MDA-N | MOLT-4 leukemia | NCI-H226 lung | NCI-H23 lung | NCI-H460 lung | NCI-H522 lung | NCI/ADR-RES ovarian | OVCAR-3 ovarian | OVCAR-5 ovarian | OVCAR-8 ovarian | PC-3 prostate | RPMI-8226 leukemia | SF-268 CNS | SF-295 CNS | SK-MEL-2 melanoma | SK-MEL-5 melanoma | SN12C renal | SNB-19 CNS | SNB-75 CNS | T-47D breast | TK-10 renal | U251 CNS | UACC-257 melanoma | UACC-62 melanoma
0.972 µM: SK-MEL-28 melanoma
8.53 µM: OVCAR-4 ovarian
50 µM: SR leukemia
